From US20240294499A1, “TARGETED PROTEIN DEGRADATION USING BIFUNCTIONAL COMPOUNDS THAT BIND UBIQUITIN LIGASE AND TARGET MCL-1 PROTEIN” (Captor Therapeutics S.A., priority 2021, published 2024) come the findings set out here.

Common to all, as to type: cell-based
Data set [1] deals with MV-4-11 cells. The data set can be described thus: Mitochondrial potential changes in cancer cells, flow cytometry (TMRE). The note with it: 5 hours. The method, then: The effect of compounds 220 and 268 of the invention in MV-4-11 cells was investigated using the following protocol.
MV-4-11 cells were seeded on 384-well plates (0.05 ml) in growth medium containing 1% FBS and 50 nM tetramethylrhodamine ethyl ester (TMRE). Immediately after seeding, compounds in appropriate concentrations were added directly to the cell culture medium. After 5 hours incubation, cells were analyzed by flow cytometry (LSR Fortessa X-20; BD Biosciences). Results were evaluated using FlowJo (V10) software.
FIG. 7 presents the effect of the compound in the mitochondrial potential of MV-4-11 cells treated with 220 for 5 hours. Compound concentration is specified in the top-left corner of each histogram; Dimethyl sulfoxide (DMSO) was used as vehicle control. Population of interest and the percentage of cells included are highlighted with a red bar and shown in bold red ink, respectively.
FIG. 8 presents the concentration dependent decrease (compared to DMSO control) of the population of cells with normal polarized mitochondria after treatment of MV-4-11 cells with the compounds 220 and 268 for 5 hours.

For a further data set, the system named is iCELL Cardiomyocytes. Briefly: Cardiac safety: caspase 3 and 7 activation (Caspase-Glo 3/7) in iCELL Cardiomyocytes. An excerpt: The effect of various compounds of the invention and a reference compound AZD5991 on cardiac safety was investigated by the evaluation of caspase 3 and 7 activation using Caspase-Glo 3/7 Assay (Promega; G8092) in iCELL™ Cardiomyocytes from FUJIFILM Cellular Dynamics (Catalog number: 11713). In the Caspase-Glo® 3/7 Assay, the luminescence (measured as Relative Luciferase Units, RLU) is proportional to the amount of caspase activity present in each sample.
The assay is initiated by thawing and seeding iCell® Cardiomyocytes as specified in the User Guide. After 48 hours, the cells are washed to remove unattached cells and debris and immediately treated with compounds or DMSO diluted in the maintenance medium (FCDI; cat: M1003). Compound concentrations used in this assay: 7 points 1/3 dilution curve starting at 100 uM. After 24 hours of incubation with compounds, caspase activity is measured by the addition of the Caspase-Glo® 3/7 Reagent followed by the luminescence measurement.
The analysis of the results is performed by calculation of the fold change in caspase 3/7 activity at a given compound concentration. Fold change is calculated with the formula: […]
where: • RLU Xi is the Relative Luciferase Units of sample I; • RLU BG is the Background Relative Luciferase Units; • RLU C is the Relative Luciferase Units of Control (DMSO).
The experiments were performed in technical duplicates.

The test system of data set [2] is MV-4-11 cells. Briefly: Induction of apoptosis in cancer cells, flow cytometry (Annexin V/PI). The note with it: MV-4-11 cells, 1, 3, 10, 30 and 100 nM, 24 hours. The method, then: The effect of compound 204 of the invention MV-4-11 cells was investigated using the following protocol.
MV-4-11 cells were seeded on 24-well plates (1 ml) in growth medium containing 1% FBS. Immediately after seeding, compounds in appropriate concentrations were added directly to the cell culture medium. After 24 hours incubation, cells were washed twice with cold DPBS and the staining was performed using the FITC Annexin V Apoptosis Detection Kit I (BD Pharmingen; 556547). Samples were then analyzed by flow cytometry (LSR Fortessa X-20; BD Biosciences) within 1 hr. Results were evaluated using FlowJo (V10) software.
FIG. 6 presents the induction of apoptosis in MV-4-11 cells treated with 204 at 1, 3, 10, 30, and 100 nM concentration for 24 hours, as indicated.
(In general: A flow cytometer gives signals particle by particle.)

As to `Cc1nn(C)c(C)c1-c1c(Cl)ccc2c(CCCOc3cccc4cc(F)ccc34)c(C(=O)O)n(CCN3CCN(C(=O)Cn4c(C)nc5c(C(=O)NC6CCC(=O)NC6=O)cccc54)CC3)c12` (centres unmarked) [Compound 268, 6-chloro-1-{2-[4-(2-{4-[(2,6-dioxopiperidin-3-yl)carbamoyl]-2-methyl-1H-1,3-benzodiazol-1-yl}acetyl)piperazin-1-yl]ethyl}-3-{3-[(6-fluoronaphthalen-1-yl)oxy]propyl}-7-(1,3,5-trimethyl-1H-pyrazol-4-yl)-1H-indole-2-carboxylic acid], the “mitochondrial potential (population of cells with normal polarized mitochondria)” value in the data set with MV-4-11 cells [1] is listed as “concentration dependent depolarization of mitochondria”.
For `Cc1nn(C)c(C)c1-c1c(Cl)ccc2c(CCCOc3cccc4ccccc34)c(C(=O)O)n(CCN3CCN(C(=O)COc4cccc5c4C(=O)N(C4CCC(=O)NC4=O)C5=O)CC3)c12` (centres unmarked) [Compound 204, 6-chloro-1-(2-(4-(2-((2-(2,6-dioxopiperidin-3-yl)-1,3-dioxoisoindolin-4-yl)oxy)acetyl)piperazin-1-yl)ethyl)-3-(3-(naphthalen-1-yloxy)propyl)-7-(1,3,5-trimethyl-1H-pyrazol-4-yl)-1H-indole-2-carboxylic acid], the “Fold change at 1.2 uM (caspase 3/7 activity in cardiomyocytes)” value with iCELL Cardiomyocytes (1.2 uM, 24 hours incubation, vs DMSO) is recorded as at most 1.5 ± 0.2. In addition, in the data set on iCELL Cardiomyocytes (as opposed to reference compound AZD5991), the “activity in caspase activity assay in cardiomyocytes” value is given as “little to no activity”. Further, the “population of late apoptotic/cell death (Annexin+/PI+) cells” value with MV-4-11 cells [2] is recorded as “concentration dependent increase”.
On to `Cc1nn(C)c(C)c1-c1c(Cl)ccc2c(CCCOc3cccc4cc(F)ccc34)c(C(=O)O)n(CCN3CCN(C(=O)COc4cccc5c4CN(C4CCC(=O)NC4=O)C5=O)CC3)c12` (centres unmarked) [Compound 220, 6-chloro-1-{2-[4-(2-{[2-(2,6-dioxopiperidin-3-yl)-1-oxo-2,3-dihydro-1H-isoindol-4-yl]oxy}acetyl)piperazin-1-yl]ethyl}-3-{3-[(6-fluoronaphthalen-1-yl)oxy]propyl}-7-(1,3,5-trimethyl-1H-pyrazol-4-yl)-1H-indole-2-carboxylic acid], for which the “mitochondrial potential (population of cells with normal polarized mitochondria)” value with MV-4-11 cells [1] was “concentration dependent depolarization of mitochondria”.
